From patent US20090246134A1, “COMPOSITIONS AND METHODS FOR MODULATING GATED ION CHANNELS” (PainCeptor Pharma Corporation, priority 2007, published 2009)
“And” between values parts separate entries of the source, which are not always exact repeats. Equal entries are not always repeated.

Experiments:
[1] = Metabolite identification (LC-MS), sample 1, source of sample not given; assay type: in vitro ADME
Text: (§1) The objective of this study is to analyze in vitro samples of Compound A and Compound B from rat and human microsomes using liquid chromatography quadrupole ion trap mass spectrometry and identify the nature of the metabolite(s) for each species.
(§2) The HPLC system consisted of a Thermo Surveror autosampler and a Thermo Surveyor MS pump (San Jose, Calif., USA). The LC-MS/MS system used was a Thermo LCQ Advantage (San Jose, Calif., USA). Data was acquired on a Dell Optiplex desktop computer (Round Rock, Tex., USA) equipped with operation system Windows XP professional. Data acquisition and analysis were performed using XCalibur 1.4 (San Jose, Calif., USA).
(§3) After the incubation period of the liver microsomes, the reaction was stopped with the addition of acetonitrile and frozen for transport. Before analysis, the samples were thawed at room temperature. They were vortexed vigorously and centrifuged at approximately 12000 g for 10 minutes. The supernatant was transferred into an injection vial for analysis.
(§4) A gradient mobile phase was used with a Thermo Phenyl 100×2 mm column with particle size of 5 μm. The initial mobile phase condition consisted of methanol and 0.1% formic acid solution at a ratio of 20:80, respectively. From 0 to 2 minutes, the ratio was maintained at 20:80. From 2 to 10 minutes, a linear gradient was applied and a ratio of 90:10 was maintained from 10 to 12 minutes. […] The flow rate was fixed at 0.25 mL/min.
(§5) The mass spectrometer was interfaced with the HPLC system using a pneumatic assisted electrospray ion source. The sheath gas was set to 15 units and the ESI electrode was set to 4000 V (positive mode). The capillary temperature was set at 300° C., and the capillary voltage was set to 13 V. The mass spectrometer was operating in full scan MS mode using one segment analysis (200-800).

[2] = tested on: CFA-induced change in weight bearing in Sprague-Dawley rats; experiment: CFA model of chronic inflammatory pain, hindpaw weight bearing; assay type: in vivo, rat; settings: 24 h after CFA; 60 min after drug; Compound A 5, 10, 20 mg/kg i.p.; Compound H 10, 30, 60 mg/kg; morphine 3, 6, 10 mg/kg; n=7-8
Procedure: Rats (body weight 260-300 g) were given a s.c. injection of CFA (50% in saline, 100 μl, Sigma) into the plantar surface of the hindpaw under brief halothane anaesthesia. After 24 h, they were then tested for hindpaw weight bearing responses, as assessed using an Incapacitance Tester (Linton Instrumentation, UK), (Zhu et al., 2005). The instrument incorporates a dual channel scale that separately measures the weight of the animal distributed to each hindpaw. While normal rats distribute their body weight equally between the two hindpaws (50-50), the discrepancy of weight distribution between an injured and non-injured paw is a natural reflection of the discomfort level in the injured paw (nocifensive behavior). The rats were placed in the plastic chamber designed so that each hindpaw rested on a separate transducer pad. […] For each rat, three readings from each paw were taken and then averaged. Side-to-side weight bearing difference was calculated as the average of the absolute value of the difference between two hindpaws from three trials (right paw reading-left paw reading).
Hindpaw weight bearing responses were measured in male Sprague-Dawley rats for 2-3 days prior to being given a hindpaw injection of CFA. Twenty-four hours later baseline responses were measured and rats were then administered Compound A (5, 10 and 20 mg/kg, i.p.), Compound H (10, 30 and 60 mg/kg) and morphine (3, 6 and 10 mg/kg). Weight bearing responses were then measured at 30, 60 and 120 min after drug or vehicle injection (data shown at 60 min.). […] All groups n=7-8.

[3] = tested on: native sensory-neuron gated ion channels; experiment: Patch-clamp electrophysiology of sensory neurons in primary culture; assay type: cell-based, rat; settings: n=3
Text: This example describes another in vitro assessment of the inhibitory activity of the compounds of the present invention utilizing patch-clamp electrophysiology of sensory neurons in primary culture.
Sensory neurons can be isolated and cultured in vitro from different animal species. The most widely used protocols use sensory neurons isolated from neonatal (Eckert, et al. (1997) J Neurosci Methods 77:183-190) and embryonic (Vasko, et al. (1994) J Neurosci 14:4987-4997) rat. […] Electrophysiology is performed similarly as described above in Example 2. In the voltage-clamp mode, trans-membrane currents are recorded. Compounds A and H at 1 μM inhibit the pH 6.5-induced inward current. In the current-clamp mode, change in the trans-membrane potential are recorded. Under acidic conditions (e.g., pH 6.5) the membrane depolarizes, leading to the firing of action potentials. Compounds A and H at 1 μM inhibit the acid-induced membrane depolarization and reduce the ensuing rate of action potential firing.

[4] = Liver microsomes stability and metabolite identification (LC-MS), rat; assay type: in vitro ADME
Text: as §1, §2, §3, §4, §5

[5] = rat microsomes 60 min (samples 5-7)

In the case of COc1ccc(F)cc1-c1cc2c(c3c1CCN(C)C3)NC(=O)C2=NO [Compound A, 5-(5-fluoro-2-methoxyphenyl)-6,7,8,9-tetrahydro-3-(hydroxyimino)-8-methyl-1H-pyrrolo[3,2-h]isoquinoline-2(3H)-one], the “Compound A metabolite identification: m/z 342” value [1] is reported as “no”, the “Compound A metabolite identification: m/z 356 (parent)” value [1] is reported as “Yes” and the “Compound A metabolite identification: m/z 372” value [1] is reported as “no”. The “Compound A metabolite identification: m/z 412” value [1] was “no”, the “CFA-induced change in weight bearing compared with vehicle” value [2] was “marked dose-dependent attenuation” and the acid-induced membrane depolarization ([3]; current-clamp mode, 1 μM) was “inhibit”. For the same compound, the “rate of action potential firing” value ([3]; current-clamp mode, acidic conditions, 1 μM) was “reduce”, the “activity of native sensory-neuron gated ion channels” value [3] was “effectively modulate” and the “pH 6.5-induced inward current” value ([3]; voltage-clamp mode, 1 μM) was “inhibit”. For the same compound, the Total % metabolites ([4]; % peak area relative to parent at T0, 60 min incubation, rat microsomes) was 32.76%, the “Compound A metabolite identification: m/z 342” value [4, 5] was “Yes” and the “Compound A metabolite identification: m/z 356 (parent)” value [4, 5] was “Yes”. The “Compound A metabolite identification: m/z 372” value [4, 5] was “Yes”, the “Compound A metabolite identification: m/z 412” value [4, 5] was “trace” and the “Calc. Conc.” value ([4]; rat microsomes, time 0 min) was 3.61 µM and 3.80 µM. The “Calc. Conc.” value ([4]; rat microsomes, time 60 min) was 2.49 µM and 2.67 µM and 2.40 µM.
